In US8399514B2, “Treatment for multiple sclerosis” (Biogen Idec MA Inc., priority 2007, dated 2013):

Tests used:
Nrf2 [1] = assay: Nrf2 immunohistochemistry of spinal cord tissues in MOG 35-55 induced EAE; type: in vivo; conditions: EAE mice, oral gavage twice a day from day 3 p.i., DMF 5 or 15 mg/kg, MMF 15 mg/kg
Experimental: For induction of EAE, mice received s.c. injections in the flanks and tail base of 50 μg MOG 35-55 peptide in PBS emulsified in an equal volume of complete Freund's adjuvant (CFA) containing Mycobacterium tuberculosis H37RA (Difco, Detroit Mich., USA) at a final concentration of 0.5 mg/ml. Two injections of pertussis toxin (List Biological Laboratories Inc., California, USA; […] i.p) were given on days 0 and 2.
DMF and MMF was diluted in 200 μl 0.08% Methocel/H2O as vehicle and administered by oral gavage starting from day 3 post immunization (p.i) until termination. Each treatment group consisted of 8 animals: vehicle alone as a negative control, 5 mg/kg body weight DMF twice a day, 15 mg/kg body weight DMF twice a day, 15 mg/kg body weight MMF twice a day. The compounds were obtained via Fumapharm AG. Oral gavage was used to ensure exact dosing and to avoid compound degradation.
Spinal cord tissues were fixed in 4% paraformaldehyde and embedded in paraffin. […]
Immunohistochemistry was performed using the Dako autostainer as follows. […] The rabbit anti Nrf2 antibody C-20 (sc-722, Santa Cruz Biotechnology) was added at a 1:250 dilution in Dako Diluent with Background Reducing Components (Dako # S3022) C-20 antibody was detected using the Envision anti rabbit labeled polymer-HRP (Dako #K4003) and DAB (Vector Labs #SK-4100) was used as the chromogenic substrate. […]

Nrf2 [2] = assay: Western blot of Nrf2 and NQO1 in DLD1 cells treated with DMF or MMF; type: cell-based, human; conditions: DLD1 cells in culture; 5, 15, or 50 μM; 16 hours
Experimental: Human colon carcinoma DLD1 cells were treated with DMF or MMF at indicated concentrations (5, 15, or 50 μM) for 16 hours, rinsed with PBS, and harvested into reducing SDS sample buffer. The lysates were subjected to SDS PAGE and the separated proteins were electrophoretically transferred onto nitrocellulose membranes for Western blot analysis. To detect Nrf2 and NQO1, the membranes were incubated with the respective primary antibodies overnight at 4° C., washed, and incubated with peroxidase-conjugated secondary antibodies followed by the chemiluminescent peroxidase substrate. Detection of the target protein band luminescence and image acquisition were done using CCD-equipped imaging station Kodak2000R.

Nrf2 [3] = assay: RNAi (siRNA Nrf2/Keap1) experiment in DLD1 cells stimulated with DMF, Western blot of Nrf2 and NQO1; type: cell-based, human; conditions: 30 μM DMF for 40 hours
Experimental: DLD1 cells were grown in MEM supplemented with 10% fetal bovine serum. The cells were transfected with the indicated siRNA's using the Lipofectamine reagent (Invitrogen) according to the manufacturer's instructions and 30 hrs later stimulated with 30 μM DMF for 40 hours. The cells were harvested and processed for Western blotting analysis of Nrf2 and NQO1 levels as described in Example 1. Sources and the identity of reagents used in Examples 1 and 2 are specified Table 3 below: […]

COC(=O)/C=C/C(=O)OC [DMF]
activation of Nrf2 in vivo (Nrf2 immunostaining, morphometric analysis, FIGS. 3 and 4) (Nrf2 [1]): activation of Nrf2 in vivo
activation of Nrf2 (Nrf2 and NQO1 protein levels, Western blot, FIG. 1) (Nrf2 [2]): potent activators of Nrf2
DMF-induced upregulation of NQO1, dependence on Nrf2 (FIG. 2) (Nrf2 [3]; DLD1 cells transfected with Nrf2 or Keap1 siRNA): upregulation of NQO1 requires Nrf2
Nrf2 agonism: cellular accumulation of Nrf2 and Nrf2 target gene expression (FIG. 2) (Nrf2 [3]; DLD1 cells): acts as an Nrf2 agonist

COC(=O)/C=C/C(=O)O [MMF]
activation of Nrf2 in vivo (Nrf2 immunostaining, morphometric analysis, FIGS. 3 and 4) (Nrf2 [1]): activation of Nrf2 in vivo
activation of Nrf2 (Nrf2 and NQO1 protein levels, Western blot, FIG. 1) (Nrf2 [2]): potent activators of Nrf2
